# Earlier results as cited in US11484510B2, “Method to treat vitiligo” (APIRX PHAR[…], LLC, priority 2017, dated 2022).
# How the values were obtained:
# [1] = test system: α2-adrenergic receptor
# [2] = test system: 5-HT1A receptor
# [3] = target: CB1 receptor (Homo sapiens, UniProt P21554)
# Chain of CB1 receptor (P21554 whole entry): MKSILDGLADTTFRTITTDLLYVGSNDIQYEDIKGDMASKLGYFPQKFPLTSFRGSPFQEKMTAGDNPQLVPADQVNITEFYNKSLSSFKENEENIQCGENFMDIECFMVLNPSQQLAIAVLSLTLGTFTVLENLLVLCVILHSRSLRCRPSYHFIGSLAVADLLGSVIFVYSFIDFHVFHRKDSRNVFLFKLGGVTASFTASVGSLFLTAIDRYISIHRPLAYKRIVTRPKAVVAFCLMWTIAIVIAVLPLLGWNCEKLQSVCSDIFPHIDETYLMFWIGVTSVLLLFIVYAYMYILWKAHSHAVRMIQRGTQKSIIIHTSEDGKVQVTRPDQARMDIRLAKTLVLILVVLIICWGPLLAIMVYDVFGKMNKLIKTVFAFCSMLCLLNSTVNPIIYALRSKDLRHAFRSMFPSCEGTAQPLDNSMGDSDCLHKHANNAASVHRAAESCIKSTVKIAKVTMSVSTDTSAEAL
structure (smiles),measurement,setting,value
"CCCCCc1cc(O)c(C/C=C(\C)CCC=C(C)C)c(O)c1 [CBG, 2-[(2E)-3,7-dimethylocta-2,6-dienyl]-5-pentyl-benzene-1,3-diol]","Affinity, α2-adrenergic receptor agonist",[1],high affinity
same,"Affinity, 5-HT1A receptor antagonist",[2],moderate affinity
same,"Affinity, CB1 receptor antagonist",[3],low affinity
